Patent US8133847B2, “Pyrido[2,3-B]pyrazine derivatives useful as herbicidal compounds” (Syngenta Limited, priority 2006, dated 2012)

Legend:
Format in all cases: in vivo
[1] = system: test plants (a variety of test species); experiment: Example B2 herbicidal action, post-emergence, pots in glasshouse; conditions: evaluated after 13 days, 100=total damage to plant, 0=no damage to plant
Method: (§1) Seeds of a variety of test species were sown in standard soil in pots. After 8 days cultivation (post-emergence) under controlled conditions in a glasshouse (at 24/16° C., day/night; 14 hours light; 65% humidity), the plants were sprayed with an aqueous spray solution derived from the formulation of the technical active ingredient in acetone/water (50:50) solution containing 0.5% Tween 20 (polyoxyethylene sorbitan monolaurate, CAS RN 9005-64-5). The test plants were then grown in a glasshouse under controlled conditions in a glasshouse (at 24/16° C., day/night; 14 hours light; 65% humidity) and watered twice daily. After 13 days, the test was evaluated (100=total damage to plant; 0=no damage to plant).

[2] = system: Digitaria sanguinalis (DIGSA); experiment: Example B3 herbicidal action, post-emergence; conditions: 1000 g/ha, after 13 days, 100=total damage to plant, 0=no damage to plant
Method: (§2) Seeds of a variety of test species were sown in sterilised compost in small pots. After cultivation for seven days (post-emergence) in controlled conditions in the glasshouse (at 24/16° C., day/night; 14 hours light; 65% humidity) the plants were sprayed with 1 mg of the active ingredient, formulated in 2.5 ml acetone/water (50:50) solution, which is equivalent to 1000 g/ha. Once the foliage was dry, the pots were kept in the glasshouse (at 24/16° C., day/night; 14 hours light; 65% humidity), and were watered twice daily. After 13 days the test was evaluated (100=total damage to plant, 0=no damage to plant).

[3] = system: Chenopodium album (CHEAL); experiment: Example B3 herbicidal action, post-emergence; conditions: 1000 g/ha, after 13 days, 100=total damage to plant, 0=no damage to plant
Method: as §2

[4] = system: Alopecurus myosuroides (ALOMY); experiment: Example B3 herbicidal action, post-emergence; conditions: 1000 g/ha, after 13 days, 100=total damage to plant, 0=no damage to plant
Method: as §2

[5] = system: Amaranthus retroflexus (AMARE); experiment: Example B3 herbicidal action, post-emergence; conditions: 1000 g/ha, after 13 days, 100=total damage to plant, 0=no damage to plant
Method: as §2

Setaria faberi (SETFA) = experiment: Example B2 herbicidal action, post-emergence, pots in glasshouse; conditions: Application post-emergence, evaluated after 13 days (100=total damage to plant; 0=no damage to plant)
Method: as §1

[6] = system: Echinochloa crusgalli (ECHCG); experiment: as above; conditions: Application post-emergence, evaluated after 13 days (100=total damage to plant; 0=no damage to plant)
Method: as §1

Solanum nigrum (SOLNI) = experiment: as above; conditions: Application post-emergence, evaluated after 13 days
Method: as §1

[7] = system: Ipomea hederaceae (IPOHE); experiment: as above; conditions: Application post-emergence, evaluated after 13 days (100=total damage to plant; 0=no damage to plant)
Method: as §1

[8] = system: Amaranthus retroflexus (AMARE); experiment: as above; conditions: Application post-emergence, evaluated after 13 days (100=total damage to plant; 0=no damage to plant)
Method: as §1

SMILES	damage to the test plants [1]	damage to plant, Digitaria sanguinalis (DIGSA) [2]	damage to plant, Chenopodium album (CHEAL) [3]	damage to plant, Alopecurus myosuroides (ALOMY) [4]	damage to plant, Amaranthus retroflexus (AMARE) [5]	damage to plant, Setaria faberi (SETFA) (Setaria faberi (SETFA))	damage to plant, Echinochloa crusgalli (ECHCG) [6]	damage to plant, Solanum nigrum (SOLNI) (Solanum nigrum (SOLNI))	damage to plant, Ipomea hederaceae (IPOHE) [7]	damage to plant, Amaranthus retroflexus (AMARE) [8]
CC(C)(C)C(=O)Oc1c(-c2cc(F)c(Cl)cc2Cl)c(=O)[nH]c2nccnc12 [Compound B48]	no damage									
CC(C)(C)C(=O)Oc1c(-c2ccc(C(F)(F)F)cc2Br)c(=O)[nH]c2nccnc12 [Compound B54]		0	8	0	3					
O=c1[nH]c2nccnc2c(O)c1-c1ccccc1 [Compound A22]	no damage									
Cn1c(=O)c(-c2ccccc2)c(OC(=O)C(C)(C)C)c2nccnc21 [Compound C137]	no damage					0	0	0	5	9
COc1cccc(-c2c(O)c3nccnc3[nH]c2=O)c1OC [Compound A41]		6	6	3	0					
CCn1c(=O)c(-c2c(F)c([N+](=O)[O-])cc(F)c2Cl)c(OC(=O)C(C)(C)C)c2nccnc21 [Compound C158]		0	10	0	9					
CCn1c(=O)c(-c2ccc(C(F)(F)F)cc2[N+](=O)[O-])c(OC(=O)C(C)(C)C)c2nccnc21 [Compound C141]		0	7	0	10					
O=c1[nH]c2nccnc2c(O)c1-c1ccc(C(F)(F)F)cc1Br [Compound A43]		0	8	0	7					
Cc1cccc([N+](=O)[O-])c1-c1c(OC(=O)C(C)(C)C)c2nccnc2n(C)c1=O [Compound C161]		5	2	0	6					
CCn1c(=O)c(-c2cc(-c3ccc(Cl)cc3)ccc2C)c(OC(=O)C(C)C)c2nccnc21 [Compound C156]		3	0	8	0					
Cn1c(=O)c(-c2c(F)c([N+](=O)[O-])cc(F)c2Cl)c(OC(=O)C(C)(C)C)c2nccnc21 [Compound C157]		0	8	0	6					
CC(=O)Oc1c(-c2ccc(Cl)cc2Cl)c(=O)n(C(C)C)c2nccnc12 [Compound C7]		3	7	0	9					
CCn1c(=O)c(-c2c(Cl)ccc(Cl)c2Cl)c(OC(=O)C(C)C)c2nccnc21 [Compound C107]		2	10	0	10					
CCn1c(=O)c(-c2cccc(C(F)(F)F)c2Cl)c(OC(=O)C(C)(C)C)c2nccnc21 [Compound C132]		0	8	0	10					
Cc1cc(C)c(-c2c(O)c3nccnc3n(C)c2=O)c(C)c1 [Compound D7]						10	10	10	9	10
CC(C)C(=O)Oc1c(-c2cc(F)c(Cl)cc2Cl)c(=O)n(C)c2nccnc12 [Compound C148]						4	6	6	7	9
CCn1c(=O)c(-c2cc(F)c(Cl)cc2Cl)c(OC(=O)C(C)(C)C)c2nccnc21 [Compound C153]						1	1	8	5	9
CC(C)(C)C(=O)Oc1c(-c2cc(F)ccc2Cl)c(=O)[nH]c2nccnc12 [Compound B46]						6	4	10	9	10
CC(C)(C)C(=O)Oc1c(-c2c(F)ccc(Br)c2Cl)c(=O)[nH]c2nccnc12 [Compound B49]						7	3	9	8	10
CC(C)(C)C(=O)Oc1c(-c2c(F)ccc(F)c2Cl)c(=O)n(CC2CCC2)c2nccnc12 [Compound C131]						0	0	2	0	0
